# Source: patent US9474730B2, “Methods and compositions for use with K-ras mediated disorders” (Board of Regents of the University of Texas System, priority 2012, dated 2016)
# Where a name gives a salt, the structure may show the parent alone.
# Key:
# [1] = tested on: cells expressing constitutively active N-Ras; experiment: Signaling downstream of oncogenic N-ras; assay type: cell-based; conditions: data not shown
# Experimental: (§1) Preparation of whole-cell lysates: cells were lysed in Buffer B (50 mM Tris [pH 7.5], 75 mM NaCl, 25 mM NaF, 5 mM MgCl2, 5 mM EGTA, 1 mM dithiothreitol, 100 μM NaVO4, 1% Nonidet P-40 plus protease inhibitors). Cellular fractionation: cells were incubated in Buffer A (10 mm Tris-HCl, pH 7.5, 25 mm NaF, 5 mm MgCl2, 1 mm EGTA, 1 mm dithiothreitol, 100 μm NaVO4 plus protease inhibitors) for 30 minutes on ice and lysed by passing through a 27 G needle 30 times. The post nuclear supernatant was centrifuged at 100,000 g for 30 minutes and the membrane pellet was resuspended in Buffer A containing 1% Triton X-100.
# (§2) Quantification of intensities was performed using FluorChemQ software.
# [2] = molecular target: T1, GFP-H-rasG12V in MDCK or BHK cells (Homo sapiens, UniProt P01112, G12V); experiment: Cellular fractionation (P100/S100) with quantitative Western blotting, GFP-H-rasG12V; assay type: cell-based, canine (MDCK), hamster (BHK); conditions: 4 μg/mL for MDCK and 6 μg/mL for BHK, 48 hours, vs vehicle
# T1 construct: MDCK and BHK cells expressing GFP-tagged full length constitutively active Ras (G12V) proteins; expressed in transfected cells
# Experimental: . Following treatment, membrane (P100) and soluble (S100) protein fractions were prepared and analyzed by quantitative Western blotting. Shown are representative Western blots (showing GFP-Ras) of membrane and soluble protein fractions from 3 independent experiments.
# as §1, §2
# [3] = tested on: Raf kinase activity in BHK cells stably expressing K-rasG12V; experiment: Raf kinase assay on membrane fractions of treated cells (coupled MEK/ERK assay); assay type: cell-based, hamster; conditions: 6 μg/mL, 48 h; phosphorylation of recombinant ERK substrate
# Experimental: FIG. 5: Illustrates that fendiline HCl inhibits Raf kinase activity and signaling downstream of oncogenic K-ras: BHK cells stably expressing K-rasG12V were treated with vehicle or fendiline HCl (6 μg/mL) for 48 h. (A) Raf kinase activity in membrane fractions prepared from the cells was measured in a coupled […] kinase assay. Data is shown as mean±SEM from 3 independent experiments. (B) ppMEK and ppERK in soluble protein fraction and pAkt levels in membrane protein fraction were measured by quantitative Western blotting. Actin and Akt were used as loading controls for soluble and membrane fractions, respectively. A representative blots are shown. Data is shown as mean±SEM from 3-4 independent experiments. Statistical significance was calculated using one way ANOVA and Student's T-test. (*=p<0.05), wherein experimentation was performed in accordance with principles described herein;
# Membrane (P100) fractions were prepared from BHK or MDCK cells were dissolved in Buffer A containing 1% TritonX100. Solubilized P100 fractions were incubated with combinations of recombinant MEK and ERK in the presence of Mg^2+-ATP (40 mM and 0.5 mM, respectively) After 30 min at 30° C. with vigorous shaking, the pMEK and ppERK levels were determined by quantitative Western blotting.
compound,measurement,setting,value
CC(NCCC(c1ccccc1)c1ccccc1)c1ccccc1 (stereo not drawn) [fendiline HCl],signaling downstream of oncogenic N-ras,[1],had no effect on signaling downstream of oncogenic N-ras
same,localization of GFP-H-rasG12V (fractionation),[2],does not alter the localization of GFP-H-rasG12V
same,reduction of the amount of active Raf compared to vehicle-treated control,[3],approximately 60%
